Source: the NIST ThermoML archive (doi:10.1007/s10765-010-0725-9)
Where “and” joins values, the source holds several entries; their conditions need not be identical. Equal entries are not always repeated. Numbers after ± are expanded uncertainties.

Experiments:
[1] = wn = mass fraction of the nth substance listed; settings: Pendant drop shape
[2] = Pendant drop shape

[Ca+2].[Cl-].[Cl-] [calcium chloride] + O
surface tension liquid-gas [mN/m], [1]
Settings	303.15 K	313.15 K	323.15 K	333.15 K
w1 = 0.04	72.74 ± 0.9	70.84 ± 0.88	69.62 ± 0.87	67.62 ± 0.84
w1 = 0.1	74.59 ± 0.93	72.56 ± 0.9	70.38 ± 0.88	68.56 ± 0.85
w1 = 0.14	76.08 ± 0.94	73.65 ± 0.92	71.52 ± 0.89	70.63 ± 0.88
w1 = 0.18	77.53 ± 0.96	74.89 ± 0.93	73.25 ± 0.91	71.87 ± 0.9

[Cl-].[K+] [potassium chloride] + O
surface tension liquid-gas [mN/m], [1]
Settings	303.15 K	313.15 K	323.15 K	333.15 K
w1 = 0.1	71.58 ± 1	69.86 ± 1	67.57 ± 0.98	66.39 ± 0.96
w1 = 0.14	72.12 ± 1.1	70.64 ± 1	69.15 ± 1	66.16 ± 0.96
w1 = 0.18	76.78 ± 1.1	75.23 ± 1.1	74.65 ± 1.1	71.44 ± 1

[Cl-].[Na+] [sodium chloride] + O
surface tension liquid-gas [mN/m], [1]
Settings	303.15 K	313.15 K	323.15 K	333.15 K
w1 = 0.04	71.44 ± 1.2	70.66 ± 1.2	68.25 ± 1.2	67.31 ± 1.2
w1 = 0.1	73.42 ± 1.3	71.81 ± 1.2	70.97 ± 1.2	69.74 ± 1.2
w1 = 0.14	76.09 ± 1.3	74.6 ± 1.3	72.47 ± 1.3	71.83 ± 1.2
w1 = 0.18	77.04 ± 1.3	74.73 ± 1.3	73.38 ± 1.3	71.44 ± 1.2

O=S(=O)([O-])[O-].[Na+].[Na+] [sodium sulfate] + O
surface tension liquid-gas [mN/m], [1]
Settings	303.15 K	313.15 K	323.15 K	333.15 K
w1 = 0.04	71.53 ± 0.8	70.7 ± 0.8	68.8 ± 0.78	67.27 ± 0.76
w1 = 0.1	73.56 ± 0.83	71.88 ± 0.81	70.5 ± 0.79	69.11 ± 0.78
w1 = 0.14	74.02 ± 0.83	72.82 ± 0.82	71.65 ± 0.81	69.93 ± 0.79
w1 = 0.18	76.28 ± 0.86	74.97 ± 0.84	73.22 ± 0.83	71.4 ± 0.81

O [water]
[2]
Settings	surface tension liquid-gas
303.15 K	71.54 ± 0.82 mN/m and 72.12 ± 0.82 mN/m and 71.58 ± 0.82 mN/m
313.15 K	70.64 ± 0.81 mN/m and 68.96 ± 0.79 mN/m and 69.86 ± 0.8 mN/m
323.15 K	69.15 ± 0.79 mN/m and 67.83 ± 0.78 mN/m and 67.57 ± 0.78 mN/m
333.15 K	66.16 ± 0.76 mN/m and 66.39 ± 0.76 mN/m
343.15 K	65.39 ± 0.75 mN/m and 65.8 ± 0.8 mN/m and 64.73 ± 0.75 mN/m
